Reference: ChEMBL document CHEMBL1201862, “PubChem BioAssay data set” (2004)
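Growth conditions: 96-well plates. Treatment: test compound, 48 hours, 5 concentrations. Analysis: linear interpolation between bracketing concentrations; unreached endpoints set to highest concentration. Here, GI50 denotes the concentration required for 50% inhibition of growth.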 Active and inactive are the calls of the source. No stated cut-off is given here; in the data, active = GI50 up to about 1.1 µM and inactive = higher.

What was measured:
Experiment in all cases: growth of human tumour cells (NCI), 48 h
[1] = system: NCI-H226
[2] = system: SK-OV-3
[3] = system: SNB-19
[4] = system: SW-620
[5] = system: SF-539
[6] = system: SR
[7] = system: UO-31
[8] = system: 786-0
[9] = system: HCT-15
[10] = system: COLO 205
[11] = system: SF-295
[12] = system: Malme-3M
[13] = system: HT-29
[14] = system: SK-MEL-2
[15] = system: M19-MEL
[16] = system: RXF 393
[17] = system: HL-60

SMILES	GI50 [1]	GI50 [2]	GI50 [3]	GI50 [4]	GI50 [5]	GI50 [6]	GI50 [7]	GI50 [8]	GI50 [9] [µM]	GI50 [10]	GI50 [11]	GI50 [12]	GI50 [13]	GI50 [14]	GI50 [15]	GI50 [16]	GI50 [17]
COc1nc(NC2OC(COC(C)=O)C(OC(C)=O)C(OC(C)=O)C2OC(C)=O)c(-c2csc(N)n2)c(=O)n1C (configuration not stated)	37.9 µM (inactive)	> 100 µM (inactive)	> 100 µM (inactive)	> 100 µM (inactive)	54.2 µM (inactive)	> 100 µM (inactive)	52.8 µM (inactive)	20.5 µM (inactive)	> 100	> 100 µM (inactive)	68.4 µM (inactive)	26.8 µM (inactive)	> 100 µM (inactive)	21.5 µM (inactive)	36.5 µM (inactive)	–	–
Cc1ccc(NC(=O)CCC(CC(=O)C(C)(C)C)=NNC(=O)C(=O)NN)cc1C	> 100 µM (inactive)	> 100 µM (inactive)	> 100 µM (inactive)	> 100 µM (inactive)	> 100 µM (inactive)	–	> 100 µM (inactive)	> 100 µM (inactive)	> 100	> 100 µM (inactive)	> 100 µM (inactive)	> 100 µM (inactive)	> 100 µM (inactive)	> 100 µM (inactive)	> 100 µM (inactive)	> 100 µM (inactive)	> 100 µM (inactive)
COc1ccc(/C=C/C(=O)c2sc(N)nc2C)cc1	–	> 100 µM (inactive)	> 100 µM (inactive)	> 100 µM (inactive)	> 100 µM (inactive)	–	> 100 µM (inactive)	> 100 µM (inactive)	> 100	> 100 µM (inactive)	> 100 µM (inactive)	> 100 µM (inactive)	> 100 µM (inactive)	> 100 µM (inactive)	> 100 µM (inactive)	> 100 µM (inactive)	> 100 µM (inactive)
COC(=O)C(C(=O)C(=O)Nc1nc2ccc([N+](=O)[O-])cc2s1)c1nc2ccc(Cl)cc2nc1O (configuration not stated)	> 100 µM (inactive)	35.2 µM (inactive)	> 100 µM (inactive)	> 100 µM (inactive)	> 100 µM (inactive)	> 100 µM (inactive)	> 100 µM (inactive)	> 100 µM (inactive)	> 100	> 100 µM (inactive)	> 100 µM (inactive)	> 100 µM (inactive)	> 100 µM (inactive)	> 100 µM (inactive)	> 100 µM (inactive)	> 100 µM (inactive)	> 100 µM (inactive)
CCN(CC)CCn1c2ccccc2c(=O)c2c(OC)ccc(OC)c21	60.3 µM (inactive)	> 10 µM (inactive)	> 100 µM (inactive)	6.59 µM (inactive)	39.1 µM (inactive)	32.2 µM (inactive)	43.9 µM (inactive)	69.5 µM (inactive)	57.5	38.7 µM (inactive)	61.2 µM (inactive)	77.4 µM (inactive)	46.9 µM (inactive)	> 100 µM (inactive)	65 µM (inactive)	32.4 µM (inactive)	84.3 µM (inactive)
O=C1c2ccccc2C(=O)c2nc3ccc(Cl)cc3cc21	> 100 µM (inactive)	> 100 µM (inactive)	> 100 µM (inactive)	> 100 µM (inactive)	> 100 µM (inactive)	> 100 µM (inactive)	> 100 µM (inactive)	> 100 µM (inactive)	> 100	> 100 µM (inactive)	52.5 µM (inactive)	> 100 µM (inactive)	> 100 µM (inactive)	> 100 µM (inactive)	> 100 µM (inactive)	–	–
O=C(/C=C/c1ccc(Cl)c(Cl)c1)c1cccc2ccccc12	14.4 µM (inactive)	20.3 µM (inactive)	6.85 µM (inactive)	1.71 µM (inactive)	2.96 µM (inactive)	–	19.6 µM (inactive)	3.4 µM (inactive)	2.54	12.3 µM (inactive)	11.4 µM (inactive)	18.4 µM (inactive)	3.59 µM (inactive)	–	11.7 µM (inactive)	–	2.07 µM (inactive)
CCC(CC)n1c(C)nc2c1C(=O)c1ccccc1C2=O	72.8 µM (inactive)	> 100 µM (inactive)	71.1 µM (inactive)	52.2 µM (inactive)	34 µM (inactive)	25.8 µM (inactive)	19.5 µM (inactive)	57.1 µM (inactive)	9.18	26.9 µM (inactive)	39.4 µM (inactive)	26.1 µM (inactive)	33.2 µM (inactive)	27.6 µM (inactive)	14.9 µM (inactive)	35.2 µM (inactive)	10.7 µM (inactive)
CCCCCCCCCCCCn1[nH]c(C)c(C(=S)SCCCCCCCC)c1=O	23.4 µM (inactive)	> 93.1 µM (inactive)	> 82.8 µM (inactive)	35.2 µM (inactive)	73.8 µM (inactive)	–	60.3 µM (inactive)	45.4 µM (inactive)	21	37.2 µM (inactive)	> 63 µM (inactive)	> 100 µM (inactive)	76.2 µM (inactive)	> 100 µM (inactive)	23.6 µM (inactive)	37.3 µM (inactive)	45.1 µM (inactive)
